Patent US20230331675A1, “AROMATIC ETHYLENE COMPOUND AND PREPARATION METHOD THEREFOR, AND INTERMEDIATE, PHARMACEUTICAL COMPOSITION, AND APPLICATION THEREOF” (GUANGZHOU MAXINOVEL PHARMACEUTICALS CO., LTD., priority 2020, published 2023)

Each compound was assayed against PD-1/PD-L1 (Homo sapiens (Human), UniProt Q9NZQ7) (assay: Homogeneous time-resolved fluorescence (HTRF) binding assay). Conditions: CisBio kit, read-out: IC50 of compounds binding to PD-1/PD-L1.
Text: Effect embodiment 1: Homogenouse time-resolved fluorescence
Homogeneous time-resolved fluorescence (HTRF) binding assay was used to determine the binding ability of the compound of the present disclosure to PD-1/PD-L1.
The purchased kit (CisBio, #64CUS000C-1) contained reagents required for assays such as PD-1, PD-L1, anti-tag1-Eu, Anti-tag2-XL665, dilute buffer, and detection buffer.
1. The compound was formulated to 10 concentrations with a 3-fold gradient with 100% DMSO.
2. The DMSO solution of the compound was added to the dilute buffer, mixed thoroughly, then transferred to a 96-well plate.
3. PD-L1 was diluted with dilute buffer, then added to the above 96-well plate.
4. PD-1 was diluted with dilute buffer and added to the above 96-well plate, which was then incubated at room temperature for 30 minutes.
5. A portion of anti-tag1-Eu and a portion of anti-tag2-XL665 were added to the detection buffer, mixed thoroughly and transferred to the above 96-well plate.
6. The mixture in the above 96-well plate was incubated at room temperature for 1 to 24 hours.
7. HTRF values were read with Envision.

Chain of PD-1/PD-L1 (Q9NZQ7 19-238): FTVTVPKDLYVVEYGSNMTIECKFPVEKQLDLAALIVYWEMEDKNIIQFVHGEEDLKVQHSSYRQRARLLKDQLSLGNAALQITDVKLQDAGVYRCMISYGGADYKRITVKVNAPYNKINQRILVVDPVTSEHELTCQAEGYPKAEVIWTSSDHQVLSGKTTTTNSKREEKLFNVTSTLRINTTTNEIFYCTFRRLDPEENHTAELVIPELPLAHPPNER

Structure (SMILES)	IC50
COCCOc1cc(/C=C/c2cccc(-c3ccccc3)c2C#N)c(CN2CCOC[C@H]2C(=O)O)cc1Cl [Compound 34, (S,E)-4-(5-Chloro-2-(2-(2-cyano-[1,1′-biphenyl]-3-yl)vinyl)-4-(2-methoxyethoxy)benzyl)morpholine-3-carboxylic acid]	> 10000 nM
COCCOc1cc(/C=C/c2cccc(-c3ccccc3)c2C#N)c(CN[C@@](C)(CO)C(=O)O)cc1Cl [Compound 35, (S,E)-2-((5-Chloro-2-(2-(2-cyano-[1,1′-biphenyl]-3-yl)vinyl)-4-(2-methoxyethoxy)benzyl)amino)-3-hydroxy-2-methylpropanoic acid]	1150 nM
CS(=O)(=O)CCCOc1cc(/C=C/c2cccc(-c3ccccc3)c2C#N)c(CN2CCCC[C@H]2C(=O)O)cc1Cl [Compound 36]	> 10000 nM
CS(=O)(=O)CCCOc1cc(/C=C/c2cccc(-c3ccccc3)c2C#N)c(CN2CCOC[C@H]2C(=O)O)cc1Cl [Compound 37]	> 10000 nM
Cc1cc(OCCCCC#N)c(CN2CCCC[C@H]2C(=O)O)cc1/C=C/c1cccc(-c2ccccc2)c1C#N [Compound 39, (S,E)-1-(5-(2-(2-Cyano-[1,1′-biphenyl]-3-yl)vinyl)-2-(4-cyanobutoxy)-4-methylbenzyl)piperidine-2-carboxylic acid]	172 nM
Cc1cc(OCCCCC#N)c(CN2CCOC[C@H]2C(=O)O)cc1/C=C/c1cccc(-c2ccccc2)c1C#N [Compound 40, (S,E)-4-(5-(2-(2-Cyano-[1,1′-biphenyl]-3-yl)vinyl)-2-(4-cyanobutoxy)-4-methylbenzyl)morpholine-3-carboxylic acid]	1440 nM
Cc1cc(OCCO)c(CN2CCCC[C@H]2C(=O)O)cc1/C=C/c1cccc(-c2ccccc2)c1C#N [Compound 41, (S,E)-1-(5-(2-(2-Cyano-[1,1′-biphenyl]-3-yl)vinyl)-2-(2-hydroxyethoxy)-4-methylbenzyl)piperidine-2-carboxylic acid]	281 nM
Cc1cc(OCCO)c(CN2CCOC[C@H]2C(=O)O)cc1/C=C/c1cccc(-c2ccccc2)c1C#N [Compound 42, (S,E)-4-(5-(2-(2-Cyano-[1,1′-biphenyl]-3-yl)vinyl)-2-(2-hydroxyethoxy)-4-methylbenzyl)morpholine-3-carboxylic acid]	706 nM
COCCOc1cc(C)c(/C=C/c2cccc(-c3ccccc3)c2C#N)cc1CN1CCCC[C@H]1C(=O)O [Compound 43, (S,E)-1-(5-(2-(2-Cyano-[1,1′-biphenyl]-3-yl)vinyl)-2-(2-methoxyethoxy)-4-methylbenzyl)piperidine-2-carboxylic acid]	83.9 nM
COCCOc1cc(C)c(/C=C/c2cccc(-c3ccccc3)c2C#N)cc1CN1CCOC[C@H]1C(=O)O [Compound 44, (S,E)-4-(5-(2-(2-Cyano-[1,1′-biphenyl]-3-yl)vinyl)-2-(2-methoxyethoxy)-4-methylbenzyl)morpholine-3-carboxylic acid]	265 nM
Cc1ccc(OCCCCC#N)c(CN2CCCC[C@H]2C(=O)O)c1/C=C/c1cccc(-c2ccccc2)c1C#N [Compound 45, (S,E)-1-(2-(2-(2-Cyano-[1,1′-biphenyl]-3-yl)vinyl)-6-(4-cyanobutoxy)-3-methylbenzyl)piperidine-2-carboxylic acid]	> 10000 nM
Cc1ccc(OCCCCC#N)c(CN2CCOC[C@H]2C(=O)O)c1/C=C/c1cccc(-c2ccccc2)c1C#N [Compound 46, (S,E)-4-(2-(2-(2-Cyano-[1,1′-biphenyl]-3-yl)vinyl)-6-(4-cyanobutoxy)-3-methylbenzyl)morpholine-3-carboxylic acid]	> 10000 nM
N#CCOc1cc(/C=C/c2cccc(-c3ccccc3)c2C#N)c(CN2CCCC[C@H]2C(=O)O)cc1Cl [Compound 47, (S,E)-1-(5-Chloro-2-(2-(2-cyano-[1,1′-biphenyl]-3-yl)vinyl)-4-(cyanomethoxy)benzyl)piperidine-2-carboxylic acid]	> 10000 nM
Cc1cc(CN2CCCC[C@H]2C(=O)O)c(OCC#N)cc1/C=C/c1cccc(-c2ccccc2)c1C#N [Compound 48, (S,E)-1-(4-(2-(2-Cyano-[1,1′-biphenyl]-3-yl)vinyl)-2-(cyanomethoxy)-5-methylbenzyl)piperidine-2-carboxylic acid]	8 nM
COCc1cc(/C=C/c2cccc(-c3ccccc3)c2C#N)c(C(F)(F)F)cc1CN1CCCC[C@H]1C(=O)O [Compound 49, (S,E)-1-(4-(2-(2-Cyano-[1,1′-biphenyl]-3-yl)vinyl)-2-(methoxymethyl)-5-trifluoromethylbenzyl)piperidine-2-carboxylic acid]	18.6 nM
COCc1cc(/C=C/c2cccc(-c3ccccc3)c2C#N)c(C(F)(F)F)cc1CN1CCOC[C@H]1C(=O)O [Compound 50, (S,E)-4-(4-(2-(2-Cyano-[1,1′-biphenyl]-3-yl)vinyl)-2-(methoxymethyl)-5-trifluoromethylbenzyl)morpholine-3-carboxylic acid]	141 nM

Structure (SMILES)	IC50
[2H]C([2H])([2H])Oc1cc(/C=C/c2cccc(-c3ccccc3)c2C#N)c(CN2CCCC[C@H]2C(=O)O)cc1Cl [Compound 52, (S,E)-1-(5-Chloro-2-(2-(2-cyano-[1,1′-biphenyl]-3-yl)vinyl)-4-(methoxy-d3)benzyl)piperidine-2-carboxylic acid]	> 10000 nM
[2H]C([2H])([2H])OCc1cc(/C=C/c2cccc(-c3ccccc3)c2C#N)c(C(F)(F)F)cc1CN1CCOC[C@H]1C(=O)O [Compound 54, (S,E)-4-(4-(2-(2-Cyano-[1,1′-biphenyl]-3-yl)vinyl)-2-((methoxy-d3)methyl)-5-trifluoromethylbenzyl)morpholine-3-carboxylic acid]	160 nM
[2H]C([2H])([2H])c1c(/C=C/c2cc(CN[C@@](C)(CO)C(=O)O)ccc2C(F)(F)F)cccc1-c1ccccc1 [Compound 55]	29.5 nM
COc1cc(/C=C/c2cccc(-c3ccccc3)c2C#N)c(Cl)cc1CN1CCCC[C@H]1C(=O)O [Compound 57, (S,E)-1-(5-Chloro-4-(2-(2-cyano-[1,1′-biphenyl]-3-yl)vinyl)-2-methoxybenzyl)piperidine-2-carboxylic acid]	4.4 nM
COc1cc(/C=C/c2cccc(-c3ccccc3)c2C)c(Cl)cc1CN1CCCC[C@H]1C(=O)O [Compound 58, (S,E)-1-(5-Chloro-2-methoxy-4-(2-(2-methyl-[1,1′-biphenyl]-3-yl)vinyl)benzyl)piperidine-2-carboxylic acid]	6.8 nM
[2H]C([2H])([2H])Oc1cc(/C=C/c2cccc(-c3ccccc3)c2C)c(Cl)cc1CN1CCCC[C@H]1C(=O)O [Compound 59, (S,E)-1-(5-Chloro-2-(methoxy-d3)-4-(2-(2-methyl-[1,1′-biphenyl]-3-yl)vinyl)benzyl)piperidine-2-carboxylic acid]	8.9 nM
[2H]C([2H])([2H])Oc1cc(/C=C/c2cccc(-c3ccccc3)c2C)c(C(F)(F)F)cc1CN1CCCC[C@H]1C(=O)O [Compound 60, (S,E)-1-(2-(Methoxy-d3)-4-(2-(2-methyl-[1,1′-biphenyl]-3-yl)vinyl)-5-trifluoromethylbenzyl)piperidine-2-carboxylic acid]	0.59 nM
[2H]c1c([2H])c([2H])c(-c2cccc(/C=C/c3cc(OC)c(CN4CCCC[C@H]4C(=O)O)cc3C(F)(F)F)c2C)c([2H])c1[2H] [Compound 61, (S,E)-1-(2-Methoxy-4-(2-(2-methyl-[1,1′-biphenyl]-3-yl-2′,3′,4′,5′,6′-d5)vinyl)-5-trifluoromethylbenzyl)piperidine-2-carboxylic acid]	0.73 nM
COc1cc(/C=C/c2cccc(-c3ccccc3)c2C)c(C(F)(F)F)cc1CN1CCCC[C@@H]1C(=O)O [Compound 62, (R,E)-1-(2-Methoxy-4-(2-(2-methyl-[1,1′-biphenyl]-3-yl)vinyl)-5-trifluoromethylbenzyl)piperidine-2-carboxylic acid]	7.42 nM
COc1cc(CN2CCCC[C@H]2C(=O)O)c(OC)cc1/C=C/c1cccc(-c2ccccc2)c1C [Compound 63, (S,E)-1-(2,5-Dimethoxy-4-(2-(2-methyl-[1,1′-biphenyl]-3-yl)vinyl)benzyl)piperidine-2-carboxylic acid]	30.5 nM
COc1cc(/C(F)=C/c2cccc(-c3ccccc3)c2C)c(C(F)(F)F)cc1CN1CCCC[C@H]1C(=O)O [Compound 64, (S,Z)-1-(4-(1-Fluoro-2-(2-methyl-[1,1′-biphenyl]-3-yl)vinyl)2-methoxy-5-trifluoromethylbenzyl)piperidine-2-carboxylic acid]	29.5 nM
COc1cc(/C(F)=C/c2cccc(-c3ccccc3)c2C)c(C(F)(F)F)cc1CNCCO [Compound 65, (Z)-2-((4-(1-Fluoro-2-(2-methyl-[1,1′-biphenyl]-3-yl)vinyl)-2-methoxy-5-trifluoromethylbenzyl)amino)-1-ethanol]	48 nM
COc1cc(/C(Br)=C/c2cccc(-c3ccccc3)c2C)c(C(F)(F)F)cc1CNCCO [Compound 66, (Z)-2-((4-(1-Bromo-2-(2-methyl-[1,1′-biphenyl]-3-yl)vinyl)-2-methoxy-5-trifluoromethylbenzyl)amino)-1-ethanol]	41.7 nM
COc1cc(/C(Br)=C/c2cccc(-c3ccccc3)c2C)c(C(F)(F)F)cc1CN1CCCC[C@H]1C(=O)O [Compound 67, (S,Z)-1-(4-(1-Bromo-2-(2-methyl-[1,1′-biphenyl]-3-yl)vinyl)-2-methoxy-5-trifluoromethylbenzyl)piperidine-2-carboxylic acid]	12.8 nM
COc1cc(/C=C(\Br)c2cccc(-c3ccccc3)c2C)c(C)cc1CN1CCCC[C@H]1C(=O)O [Compound 68, (S,Z)-1-(4-(2-Bromo-2-(2-methyl-[1,1′-biphenyl]-3-yl)vinyl)-2-methoxy-5-methylbenzyl)piperidine-2-carboxylic acid]	169 nM
